Results taken from US20100285583A1, “COMPOUNDS AND METHODS FOR INHIBITING PLATELET AGGREGATION” (priority 2009, published 2010).

Legend:
N-PTB domain = biological target: T1, N-PTB domain (Homo sapiens, UniProt P98082, A82R); assay: Protein-lipid overlay competition assay; assay type: binding; conditions: pre-incubation with 10-fold excess of lipid
T1 construct: The N-PTB domain (residues 1-241) cDNA construct was cloned into a pGEX6P1 vector; made in house; host or cells: E. coli Rosetta
T1 sequence (P98082 1-241 A82R): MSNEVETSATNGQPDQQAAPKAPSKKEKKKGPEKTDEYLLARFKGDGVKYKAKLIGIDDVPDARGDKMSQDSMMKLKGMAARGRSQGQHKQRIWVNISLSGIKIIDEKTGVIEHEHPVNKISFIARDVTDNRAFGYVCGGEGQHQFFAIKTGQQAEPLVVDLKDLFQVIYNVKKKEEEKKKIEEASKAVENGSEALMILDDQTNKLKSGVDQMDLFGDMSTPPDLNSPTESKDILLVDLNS
Procedure: Membrane strips (SphingoStrips™) spotted with 100 pmol of sphingolipids were purchased from Echelon Research Laboratories. Membrane strips were incubated with 0.1 μg/ml of the Dab2 PTB domain or its mutants in 20 mM Tris-HCl (pH 8.0), 150 mM NaCl, 0.1% Tween-20 and 3% fatty acid-free bovine serum albumin overnight at 4° C. Following four washes with the same buffer, proteins bound to the membrane strips were probed with rabbit anti-GST antibody (Santa Cruz Biotech). Donkey anti rabbit-horse radish peroxidase (HRP) antibody was obtained from GE Healthcare. Detection was carried out using ECL reagent (Pierce). Also, lipid strips were prepared by spotting 1 μl of either sulfatides or PtdIns(4,5)P2 dissolved in chloroform:methanol:water (1:2:0.8 and 65:35:8, respectively) onto Hybond-C extra membranes (GE Healthcare) and protein binding was monitored as described above. Bound protein was quantified using the AlphaImager program and binding was calculated as a percentage of GST-PTB binding to 100 pmoles of spotted lipid.
We next asked whether sulfatides and PtdIns(4,5)P2 compete with each other for binding to the N-PTB domain using a protein-lipid overlay competition assay. […] This observation was further confirmed by competing sulfatides and PtdIns(4,5)P2 for N-PTB domain binding using SPR. […]

[1] = test system: T2, Dab2 N-terminal phosphotyrosine binding domain (N-PTB, residues 1-241 of human Disabled-2), wild type
T2 sequence: T1 sequence (P98082 1-241 A82R)

Human washed platelets = assay: Platelet immunofluorescence analysis (subcellular localization); assay type: cell-based; conditions: activated platelets in presence of inhibitor
Procedure: Washed platelets (50 μl of […] in Tyrode's albumin buffer) were incubated with 1.9 μM of PTB domain constructs for 5 min at room temperature in the presence of 0.25 g/L fibrinogen. Aggregation was initiated by the addition of 10 μM TRAP. Reactions were incubated at room temperature unless otherwise indicated. Platelets were fixed with 0.4 mL of 3.7% formaldehyde in Phosphate Buffered Saline (PBS) for 30 min. Next, 20% goat serum was added to the fixed platelets, and 60% of the total fixed reaction was centrifuged using a Shandon cytospinner onto a Shandon coated cytoslide to achieve the appropriate platelet density for analysis. Slides were then washed twice with PBS for 10 min. Platelets were permeabilized with 0.5% Triton X-100 in PBS for 10 min and then blocked with 20% goat serum in PBS with 0.1% Triton X-100 for 1 h at room temperature. Platelets were washed 3 times with PBS with 0.1% Triton for 10 minutes and further incubated overnight with the anti-Dab2 antibody 1:100 (anti-p96; BD Transduction) in PBS with 0.1% Triton X-100 and 10% goat serum at 4° C. in a humidity chamber. Platelets were then washed and incubated with the anti-mouse Cy-3 conjugated goat antibody 1:250 and Alexa488 conjugated phalloidin (25 μg/mL) in PBS with 0.1% Triton X-100 and 10% goat serum for 2 h. Platelets were washed again and observed on an Olympus IX71 microscope using the Softworx Applied Precision software.
Mean pixel intensity was determined for 400 platelets from four fields each for 3 min and 10 min of treatments by manually drawing circles around individual platelets using the 2D Polygon tool in the Softworx software. For each time point, a threshold of significant mean pixel intensity was defined for the experiment. The percentage of countable platelets to exceed the threshold was calculated for each field and the average of four fields was computed with standard deviation. The ratio of internalization:binding is the quotient of these averages for a treatment.

## CCCCCCCCCCCCCCCC(=O)OC[C@H](COP(=O)(O)O[C@@H]1[C@H](O)[C@H](OP(=O)(O)O)[C@@H](O)[C@H](O)[C@H]1O)OC(=O)CCCCCCCCCCCCCCC [PtdIns(3)P, phosphatidylinositol 3-phosphate]
N-PTB domain
  competition with sulfatide for PTB binding: did not compete

## thrombin
[1]
  thrombin proteolysis of the N-PTB domain (FIG. 3B): thrombin cleaved the N-PTB domain leaving a ˜25 kW protease-resistant product

## CN(C)CCCN1c2ccccc2Sc2ccc(Cl)cc21 [chlorpromazine, reference compound]
Human washed platelets
  effect on N-PTB domain internalization: inhibited

## C=C1[C@@H](C)[C@H]2[C@H](Cc3ccccc3)NC(=O)[C@]23[C@H](OC(C)=O)/C=C/[C@@](C)(O)C(=O)[C@@H](C)C/C=C/[C@H]3[C@@H]1O [cytochalasin D, reference compound]
Human washed platelets
  effect on N-PTB domain internalization: completely blocked N-PTB domain internalization

## phosphatidylinositol 4,5-bisphosphate [PtdIns(4,5)P2]
N-PTB domain
  reduction of sulfatide binding of N-PTB domain: at least 60%
